Experimental data reported in US10786488B2, “Substituted quinolizine derivatives useful as HIV integrase inhibitors” (MERCK SHARP & DOHME CORP., priority 2017, dated 2020).

What was measured:
[1] = Stability of compounds in whole blood (human); assay type: in vitro ADME; details: 1 μM compound, 37° C.
Experimental: (§1) Selected compounds of the present invention (1 μM) were incubated with whole blood (with heparin) from rat, dog and human. The samples were incubated for 0, 0.5, 1 and 2 hours in a 95% humidified incubator at 37° C. with 5% CO2. At each time point, the samples were quenched with acetonitrile containing an appropriate internal standard. The samples were then vortex-mixed and centrifuged at 2,500×g for 20 minutes. The supernatants were transferred to clean plates and analyzed using LC-MS/MS. The stability of the analyte was assessed by determining the percentage of drug loss over the course of time.

[2] = Stability of compounds in whole blood (dog); assay type: in vitro ADME; details: 1 μM compound, 37° C.
Experimental: as §1

[3] = Stability of compounds in whole blood (rat); assay type: in vitro ADME; details: 1 μM compound, 37° C.
Experimental: as §1

[4] = Dog pharmacokinetic studies, oral administration to fasted Beagle dogs; assay type: in vivo; details: dose equivalent to 10 mg/kg of Compound Int-1
Experimental: Male Beagle Dogs (Marshall Farms) were used for the pharmacokinetic studies. Studies were conducted under a protocol approved by the WP-IACUC (Animal Procedure Statement #2018-600787-MAR). Following overnight-fasting, dogs were dosed orally with either Compound Int-1 at 10 mg/kg or one of the respective prodrugs at the dose equivalent to 10 mg/kg of Compound Int-1 formulated as a suspension in Orablend® SF. Dosing was followed by 15 mL water rinse via oral gavage. Food was returned at 4 hours after dosing. Blood (0.5-mL) was drawn at pre-dose, 0.25, 0.5, 1, 2, 4, 6, 24, 30, 48, 54 and 72 hours post-dosing into EDTA-coated collection tubes containing 25 μL of 2 mM dichlorvos solution in water. The tubes were kept chilled prior to blood collection and throughout plasma separation. The plasma was separated by centrifugation (2 minutes at 10000 g). After processing, 10 uL of 10% formic acid was added to each 200 uL of plasma. Acidified plasma samples were immediately frozen and kept at −70° C. until analysis by LC-MS/MS.
Mean [±SD] Pharmacokinetic Parameters for Compounds after Oral Administration to Fasted Beagle Dogs at Dose Equivalent to 10 mg/kg of Compound Int-1.

## CCOC(=O)Oc1c2n(cc(C(=O)NCc3ccc(F)cc3F)c1=O)C[C@@H]1OCCC[C@]1(C)C2=O [Compound 1]
[1]
  Remaining at 2 hours: 24%
[2]
  Remaining at 2 hours: 19%
[3]
  Remaining at 2 hours: 0%

## CCOC(=O)OCOc1c2n(cc(C(=O)NCc3ccc(F)cc3F)c1=O)C[C@@H]1OCCC[C@]1(C)C2=O [Compound 4]
[4]
  absorption versus metabolite Compound Int-1: significant increase in absorption

## CC(C)OC(=O)OCOc1c2n(cc(C(=O)NCc3ccc(F)cc3F)c1=O)C[C@@H]1OCCC[C@]1(C)C2=O [Compound 3]
[4]
  absorption versus metabolite Compound Int-1: significant increase in absorption
